Results taken from US9408826B2, “Isoflavone anti-viral compounds” (Kineta, Inc., priority 2010, dated 2016).

Test system: Murine Encephalomyocarditis virus (EMCV)
Assay: EMCV antiviral assay (cell viability by MTS)
Format: cell-based
Conditions: Huh7 cells; for Cell viability post-infection: EMCV 250 pfu, MTS
Experimental: Huh7 cells were grown under normal growth conditions and treated with the indicated amount of drug in media containing 0.5% DMSO. The cells were grown in the presence of drug for 5 hours and then infected with 250 pfu Murine Encephalomyocarditis virus (EMCV) for example obtained from ATCC #VR-129B. Infected cells were grown for an additional 18 hours and then cell viability was measured using an MTS assay. Negative control cells were treated with buffer alone containing 0.5% DMSO. Interferon treatment was used as a positive control for virus inhibition and was added similar to drug treatments at a final concentration of 10 IU/mL for example Interferon-α: Intron A, from Schering-Plough. Cell viability was measured using an MTS assay such as; CellTiter 96® AQueous One Solution Cell Proliferation Assay (MTS), from Promega #G3580.

CS(=O)(=O)Oc1ccc2c(=O)c(-c3ccc(Br)cc3)coc2c1 [KIN101, [3-(4-bromophenyl)-4-oxo-chromen-7-yl] methanesulfonate] showed a Cell viability post-infection (5 μM drug) of roughly 0.7, a Cell viability post-infection (10 μM drug) of roughly 1.2 and a Cell viability post-infection (20 μM drug) of roughly 1.45. The “Protection of cell viability following infection with EMCV (in words)” value was “protective of cell viability”.
